Results reported in US20120004244A1, “Bis Aromatic Compounds for Use as LTC4 Synthase Inhibitors” (BIOLIPOX AB, priority 2009, published 2012).

Target: T1, Recombinant human LTC4 synthase (Homo sapiens, UniProt Q16873)
T1 construct: made in house; host or cells: Pichia pastoris ('Piccia pastoralis' [sic])
T1 sequence (Q16873 1-150): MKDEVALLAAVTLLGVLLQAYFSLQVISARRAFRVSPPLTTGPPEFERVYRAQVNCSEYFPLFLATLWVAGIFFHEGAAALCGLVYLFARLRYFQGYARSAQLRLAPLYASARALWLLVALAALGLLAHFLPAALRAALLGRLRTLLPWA
Assay: LTC4 synthase in vitro assay (LTA4 to LTC4, HTRF detection)
Assay type: biochemical
Conditions: for inhibition at 10 µM: 5 min, total concentration of title compound in the assay 10 μM
Protocol: In the assay, LTC4 synthase catalyses the reaction where the substrate LTA4 is converted to LTC4. Recombinant human LTC4 synthase is expressed in Piccia pastoralis and the purified enzyme is dissolved in 25 mM tris-buffer pH 7.8 supplemented with 0.1 mM glutathione (GSH) and stored at −80° C. The assay is performed in phosphate buffered saline (PBS) pH 7.4 and 5 mM GSH in 384-well plates.
The following is added chronologically to each well:
1.48 μL LTC4 synthase in PBS with 5 mM GSH. The total protein concentration in this solution is 0.5 μg/mL. 2. 1 μL inhibitor in DMSO (final concentration 10 μM). 3. Incubation of the plate at room temperature for 10 min. 4. 1 μL LTA4 (final concentration 2.5 μM). 5. Incubation of the plate at room temperature for 5 min. 6. 10 μL of the incubation mixture is analysed using homogenous time resolved fluorescent (HTRF) detection.

Row | SMILES | IC50 [nM] | inhibition at 10 µM [%]
1 | C#CCN(c1ccc(C(=O)c2ccc(Oc3ccccc3F)c(C(=O)O)c2)nc1)c1ccc(Cl)cc1F [1:33, 5-{5-[(4-Chloro-2-fluorophenyl)(2-propynyl)amino]picolinoyl}-2-(2-fluorophenoxy)benzoic acid] | 351 | 
2 | O=C(c1ccc(Oc2ccccc2F)c(C(=O)O)c1)c1ccc(N(CC(F)(F)F)c2ccc(Cl)cc2F)cn1 [1:35, 5-{5-[(4-Chloro-2-fluorophenyl)-(2,2,2-trifluoroethyl)amino]picolinoyl}-2-(2-fluorophenoxy)benzoic acid] | 621 | 
3 | CS(=O)(=O)c1ccc(Oc2ccc(C(=O)c3ccc(N(CC4CC4)c4ccc(Cl)cc4)cn3)cc2C(=O)O)cc1 [1:37, 5-{5-[(4-Chlorophenyl)(cyclopropylmethyl)amino]picolinoyl}-2-(4-methylsulfonylphenoxy)benzoic acid] | 300 | 
4 | COc1cc(OC)cc(Oc2ccc(C(=O)c3ccc(N(CC4CC4)c4ccc(Cl)cc4)cn3)cc2C(=O)O)c1 [1:39, 5-{5-[(4-Chlorophenyl)(cyclopropylmethyl)amino]picolinoyl}-2-(3,5-dimethoxyphenoxy)benzoic acid] | 70 | 
5 | CC1(CN(c2ccc(C(=O)c3ccc(Oc4ccccc4F)c(C(=O)O)c3)nc2)c2ccc(Cl)cc2F)COC1 [1:41, 5-{5-[(4-Chloro-2-fluorophenyl)-(3-methyloxetan-3-ylmethyl)amino]picolinoyl}-2-(2-fluorophenoxy)benzoic acid] | 1320 | 
6 | CN(c1ccc(Cl)cc1)c1ccc(C(=O)c2ccc(Oc3ccccc3[S+](C)[O-])c(C(=O)O)c2)nc1 (stereo not drawn) [1:47, 5-{5-[(4-Chlorophenyl)(methyl)amino]picolinoyl}-2-(2-methylsulfinylphenoxy)-benzoic acid] | 1030 | 88
7 | CN(c1ccc(Cl)cc1)c1ccc(C(=O)c2ccc(Oc3ccccc3S(C)(=O)=O)c(C(=O)O)c2)nc1 [1:48, 5-{5-[(4-Chlorophenyl)(methyl)amino]picolinoyl}-2-(2-methylsulfonylphenoxy)-benzoic acid] | 632 | 95
8 | CN(c1ccc(Cl)cc1)c1ccc(C(=O)c2ccc(Nc3ccc(C(F)(F)F)cc3)c(C(=O)O)c2)nc1 [2:1, 5-{5-[(4-Chlorophenyl)(methyl)amino]picolinoyl}-2-(4-trifluoromethylphenyl-amino)benzoic acid] | 53 | 99
9 | CN(c1ccc(Cl)cc1)c1ccc(C(=O)c2ccc(NC3CCC(C(C)(C)C)CC3)c(C(=O)O)c2)nc1 (stereo not drawn) [2:2, 2-(4-tert-Butylcyclohexylamino)-5-{5-[(4-chlorophenyl)(methyl)amino]picolinoyl}-benzoic acid] | 66 | 
10 | CN(c1ccc(Cl)cc1)c1ccc(C(=O)c2ccc(NCc3ccccc3)c(C(=O)O)c2)nc1 [2:3, 2-Benzylamino-5-{5-[(4-chlorophenyl)(methyl)amino]picolinoyl}benzoic acid] | 92 | 
11 | CN(c1ccc(Cl)cc1)c1ccc(C(=O)c2ccc(NC3CCCCC3)c(C(=O)O)c2)nc1 [2:4, 5-{5-[(4-Chlorophenyl)(methyl)amino]picolinoyl}cyclohexylaminobenzoic acid] | 140 | 
12 | CN(c1ccc(Cl)cc1)c1ccc(C(=O)c2ccc(N3CCC(C(C)(C)C)CC3)c(C(=O)O)c2)nc1 [2:5, 2-(4-tert-Butylpiperidin-1-yl)-5-{5-[(4-chlorophenyl)(methyl)amino]picolinoyl}benzoic acid] | 3000 | 
13 | COc1ccc(CNc2ccc(C(=O)c3ccc(N(C)c4ccc(Cl)cc4)cn3)cc2C(=O)O)cc1 [2:6, 5-{5-[(4-Chlorophenyl)(methyl)amino]picolinoyl}-2-(4-methoxybenzylamino)benzoic acid] | 151 | 
14 | COc1cccc(CNc2ccc(C(=O)c3ccc(N(C)c4ccc(Cl)cc4)cn3)cc2C(=O)O)c1 [2:7, 5-{5-[(4-Chlorophenyl)(methyl)amino]picolinoyl}-2-(3-methoxybenzylamino)benzoic acid] | 133 | 
15 | COc1ccccc1CNc1ccc(C(=O)c2ccc(N(C)c3ccc(Cl)cc3)cn2)cc1C(=O)O [2:8, 5-{5-[(4-Chlorophenyl)(methyl)amino]picolinoyl}-2-(2-methoxybenzylamino)benzoic acid] | 132 | 
16 | CN(c1ccc(Cl)cc1)c1ccc(C(=O)c2ccc(NCc3cccnc3)c(C(=O)O)c2)nc1 [2:9, 5-{5-[(4-Chlorophenyl)(methyl)amino]picolinoyl}-2-[(3-pyridylmethyl)amino]benzoic acid] | 466 | 
17 | CN(c1ccc(Cl)cc1)c1ccc(C(=O)c2ccc(NCc3ccc(F)cc3)c(C(=O)O)c2)nc1 [2:10, 5-{5-[(4-Chlorophenyl)(methyl)amino]picolinoyl}-2-(4-fluorobenzylamino)benzoic acid] | 157 | 
18 | CN(c1ccc(Cl)cc1)c1ccc(C(=O)c2ccc(NCc3ccc(Cl)cc3Cl)c(C(=O)O)c2)nc1 [2:11, 5-{5-[(4-Chlorophenyl)(methyl)amino]picolinoyl}-2-(2,4-dichlorobenzylamino)benzoic acid] | 88 | 
19 | CN(c1ccc(Cl)cc1)c1ccc(C(=O)c2ccc(NCc3ccc4c(c3)OCO4)c(C(=O)O)c2)nc1 [2:12, 5-{5-[(4-Chlorophenyl)(methyl)amino]picolinoyl}-2-(3,4-methylenedioxybenzylamino)benzoic acid] | 66 | 
20 | COc1ccc(Nc2ccc(C(=O)c3ccc(N(C)c4ccc(Cl)cc4)cn3)cc2C(=O)O)cc1 [2:13, 5-{5-[(4-Chlorophenyl)(methyl)amino]picolinoyl}-2-(4-methoxyphenylamino)benzoic acid] | 160 | 
21 | COc1ccccc1Nc1ccc(C(=O)c2ccc(N(C)c3ccc(Cl)cc3)cn2)cc1C(=O)O [2:14, 5-{5-[(4-Chlorophenyl)(methyl)amino]picolinoyl}-2-(2-methoxyphenylamino)benzoic acid] | 68 | 
22 | CN(c1ccc(Cl)cc1)c1ccc(C(=O)c2ccc(NC3CCC(F)(F)CC3)c(C(=O)O)c2)nc1 [2:15, 5-{5-[(4-Chlorophenyl)(methyl)amino]picolinoyl}-2-(4,4-difluorocyclohexylamino)benzoic acid] | 184 | 
23 | CN(c1ccc(Cl)cc1)c1ccc(C(=O)c2ccc(NC3CCOCC3)c(C(=O)O)c2)nc1 [2:16, 5-{5-[(4-Chlorophenyl)(methyl)amino]picolinoyl}-2-(4-tetrahydropyranylamino)benzoic acid] | 333 | 

Now from value to molecule:

Row | IC50 [nM] | inhibition at 10 µM [%] | SMILES
24 | 20 |  | N#Cc1ccccc1Oc1ccccc1Oc1ccc(C(=O)c2ccc(N(CC3CC3)c3ccc(Cl)cc3)cn2)cc1C(=O)O [1:32, 5-{5-[(4-Chlorophenyl)(cyclopropylmethyl)amino]picolinoyl}-2-[2-(2-cyanophenoxy)phenoxy]benzoic acid]
25 | 195 |  | O=C(c1ccc(Oc2ccccc2F)c(C(=O)O)c1)c1ccc(N(CC2CC2)c2ccc(Cl)cc2F)cn1 [1:34, 5-{5-[(4-Chloro-2-fluorophenyl)(cyclopropylmethyl)amino]picolinoyl}-2-(2-fluorophenoxy)benzoic acid]
26 | 116 |  | O=C(c1ccc(Oc2ccccc2CCCO)c(C(=O)O)c1)c1ccc(N(CC2CC2)c2ccc(Cl)cc2)cn1 [1:36, 5-{5-[(4-Chlorophenyl)(cyclopropylmethyl)amino]picolinoyl}-2-[2-(3-hydroxypropyl)phenoxy]benzoic acid]
27 | 79 |  | O=C(c1ccc(Oc2ccccc2F)c(C(=O)O)c1)c1ccc(N(CC2CC2)c2ccc(Cl)cc2)cn1 [1:38, 5-{5-[(4-Chlorophenyl)(cyclopropylmethyl)amino]picolinoyl}-2-(2-fluorophenoxy)benzoic acid]
28 | 66 |  | O=C(c1ccc(Oc2ccccc2Oc2ccccc2)c(C(=O)O)c1)c1ccc(N(CC2CC2)c2ccc(Cl)cc2)cn1 [1:40, 5-{5-[(4-Chlorophenyl)(cyclopropylmethyl)amino]picolinoyl}-2-(2-phenoxyphenoxy)benzoic acid]
29 | 52 |  | O=C(c1ccc(Oc2ccccc2Oc2ccc(F)cc2F)c(C(=O)O)c1)c1ccc(N(CC2CC2)c2ccc(Cl)cc2)cn1 [1:42, 5-{5-[(4-Chlorophenyl)(cyclopropylmethyl)amino]picolinoyl}-2-[2-(2,4-difluorophenoxy)phenoxy]benzoic acid]
30 | 61 |  | O=C(c1ccc(Oc2ccccc2Oc2cccnc2)c(C(=O)O)c1)c1ccc(N(CC2CC2)c2ccc(Cl)cc2)cn1 [1:43, 5-{5-[(4-Chlorophenyl)(cyclopropylmethyl)amino]picolinoyl}-2-[2-(3-pyridyloxy)phenoxy]benzoic acid]
31 | 57 |  | O=C(c1ccc(Oc2ccccc2Oc2ccccn2)c(C(=O)O)c1)c1ccc(N(CC2CC2)c2ccc(Cl)cc2)cn1 [1:44, 5-{5-[(4-Chlorophenyl)(cyclopropylmethyl)amino]picolinoyl}-2-[2-(2-pyridyloxy)phenoxy]benzoic acid]
32 | 32 |  | O=C(c1ccc(Oc2ccccc2Oc2ccccc2Cl)c(C(=O)O)c1)c1ccc(N(CC2CC2)c2ccc(Cl)cc2)cn1 [1:45, 2-[2-(2-Chlorophenoxy)phenoxy]-5-{5-[(4-chlorophenyl)(cyclopropylmethyl)amino]picolinoyl}benzoic acid]
33 | 40 |  | O=C(c1ccc(Oc2ccccc2Oc2ccccc2F)c(C(=O)O)c1)c1ccc(N(CC2CC2)c2ccc(Cl)cc2)cn1 [1:46, 5-{5-[(4-Chlorophenyl)(cyclopropylmethyl)amino]picolinoyl}-2-[2-(2-fluorophenoxy)phenoxy]benzoic acid]
